The source of these data is patent publication US9527832B2, “Substituted condensed pyrimidine compounds” (GRÜNENTHAL GMBH, priority 2013, dated 2016).

The experiment addresses T1, human PDE4B1 (Homo sapiens, UniProt Q07343).
T1 construct: host or cells: Sf9 cells
The experiment can be described thus: cAMP HTRF assay to determine the activity of hPDE4B1. The format is biochemical. The conditions noted are these: for inhibition at 1 µM: Percentage inhibition of PDE4B at 1 μM test concentration; for IC50: dose response measurements with eight concentrations, reported as ranges, read-out: IC50. The protocol:
cAMP HTRF® Assay to Determine the Activity of hPDE4B1
The inhibiting effect of the compounds on the enzyme activity of human PDE4B1 was measured by the quantification of 5′-adenosine monophosphate (5′-AMP), which is formed from 3′,5′-cyclic adenosine monophosphate (cAMP). Human recombinant enzyme, expressed in Sf9 cells, and the HTRF (homogeneous time-resolved fluorescence) detection method were used in the assay.
The test compound or water (control) was mixed with the human recombinant PDE4B1 enzyme (4.8 U) in a buffer consisting of 44.4 mM tris-HCl, 5.28 mM MgCl2, 2.64 mM DTT and 0.044% Tween 20 (pH 7.8). After adding the cAMP enzyme substrate (final concentration 40 nM), the mixture was incubated for 30 minutes at room temperature. Then a fluorescence acceptor (Dye2 marked with cAMP), a fluorescence donor (anti-cAMP antibody marked with a europium cryptate) and the non-specific phosphodiesterase inhibitor IBMX (3-isobutyl-1-methylxanthine; final concentration 1 mM) were added. After 60 minutes the fluorescence transfer, which correlates with the amount of remaining cAMP, was measured with a microplate reader (Rubystar, BMG) at λex=337 nm, λem=620 nm and λem=665 nm. The enzyme activity was calculated from the quotient formed from the measured signal at 665 nm and that at 620 nm. The result was expressed as the percentage inhibition of enzyme activity of the control (without PDE4 inhibitor). The enzyme was omitted for measurement of the basal control.
IC50 values (IC50=concentration causing a half-maximal inhibition of control specific activity) were derived from dose response measurements with eight different concentrations (n=2; N=1-2).
Literature: N. Saldou et al., Comparison of recombinant human PDE4 isoforms: interaction with substrate and inhibitors, Cell. Signal. Vol. 10, No. 6, 427-440, 1998

A value given as a limit tells only on which side of the number the result lay.

T1 sequence (Q07343 whole entry): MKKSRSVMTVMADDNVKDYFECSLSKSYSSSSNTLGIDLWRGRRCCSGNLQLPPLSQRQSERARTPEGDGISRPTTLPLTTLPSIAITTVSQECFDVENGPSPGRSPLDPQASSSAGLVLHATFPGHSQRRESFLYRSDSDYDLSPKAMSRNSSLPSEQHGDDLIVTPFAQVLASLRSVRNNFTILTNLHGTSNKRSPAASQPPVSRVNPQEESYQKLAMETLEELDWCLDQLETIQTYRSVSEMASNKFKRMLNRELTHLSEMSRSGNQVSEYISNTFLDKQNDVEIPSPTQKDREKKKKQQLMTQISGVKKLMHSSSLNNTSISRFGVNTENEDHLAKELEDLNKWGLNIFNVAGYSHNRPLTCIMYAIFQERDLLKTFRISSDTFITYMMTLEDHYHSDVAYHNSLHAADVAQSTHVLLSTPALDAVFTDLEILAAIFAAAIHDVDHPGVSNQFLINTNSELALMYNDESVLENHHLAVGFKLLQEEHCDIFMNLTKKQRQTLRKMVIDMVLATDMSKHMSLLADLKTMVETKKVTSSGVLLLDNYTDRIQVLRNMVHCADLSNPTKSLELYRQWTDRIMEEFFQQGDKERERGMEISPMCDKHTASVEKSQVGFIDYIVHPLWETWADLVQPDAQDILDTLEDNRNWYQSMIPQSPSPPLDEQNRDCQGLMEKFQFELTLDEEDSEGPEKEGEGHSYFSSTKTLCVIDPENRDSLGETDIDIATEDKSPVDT

Regarding `COc1ccc(-c2nc3c(c(N4CCc5ccc(OCC(=O)N6CCCC6)cc54)n2)C[S+]([O-])C3)cc1` (stereo not drawn) [Compound No. 2-121, 2-((1-(2-(4-Methoxyphenyl)-6-oxido-5,7-dihydrothieno[3,4-d]pyrimidin-4-yl)indolin-6-yl)oxy)-1-(pyrrolidin-1-yl)ethanone], the inhibition at 1 µM was 111%. Take `COc1ccc(-c2nc3c(c(N4CCc5cc(CC(=O)O)ccc54)n2)CCC3)cc1F` [Compound No. 1-1, 2-(1-(2-(3-Fluoro-4-methoxyphenyl)-6,7-dihydro-5H-cyclopenta[d]-pyrimidin-4-yl)indolin-5-yl)acetic acid]: the inhibition at 1 µM is 102% and the IC50 is less than 100 nM. Consider `CN(C)C(=O)COc1ccc2c(c1)N(c1nc(-c3ccc(C#N)c(F)c3)nc3c1C[S+]([O-])C3)CC2` (stereo not drawn) [Compound No. 2-77, 2-((1-(2-(4-Cyano-3-fluorophenyl)-6-oxido-5,7-dihydrothieno[3,4-d]pyrimidin-4-yl)indolin-6-yl)oxy)-N,N-dimethylacetamide], for which the inhibition at 1 µM stood at 92% and the IC50 was less than 100 nM.

For `Cc1ccc(-c2nc3c(c(N4CCc5ccc(OCC(=O)N(C)C)cc54)n2)C[S+]([O-])C3)cc1` (stereo not drawn) [2-87, N,N-Dimethyl-2-[[1-(6-oxo-2-p-tolyl-5,7-dihydro-thieno[3,4-d]pyrimidin-4-yl)-2,3-dihydro-1H-indol-6-yl]oxy]-acetamide], the inhibition at 1 µM was 112% and the IC50 is less than 100 nM.

As for `NC(=O)COc1ccc2c(c1)N(c1nc(-c3ccc(Cl)s3)nc3c1CS(=O)(=O)C3)CC2` [Compound No. 2-59, 2-((1-(2-(5-Chlorothiophen-2-yl)-6,6-dioxido-5,7-dihydrothieno[3,4-d]pyrimidin-4-yl)indolin-6-yl)oxy)acetamide], the inhibition at 1 µM was 76% and the IC50 was 100 to 1000 nM. Consider `O=C(O)c1ccc2c(c1)oc(=O)n2-c1nc(-c2ccc(Cl)s2)nc2c1CCC2` [Compound No. 1-68, 3-(2-(5-Chlorothiophen-2-yl)-6,7-dihydro-5H-cyclopenta[d]pyrimidin-4-yl)-2-oxo-2,3-dihydrobenzo[d]oxazole-6-carboxylic acid], for which the inhibition at 1 µM turned out to be 34%. For `COc1ccc(-c2nc3c(c(N4CCc5cc(CC(=O)O)ccc54)n2)CCCC3)cc1Cl` [Compound No. 1-39, 2-(1-(2-(3-Chloro-4-methoxyphenyl)-5,6,7,8-tetrahydroqiuinazolin-4-yl)indolin-5-yl)acetic acid], the inhibition at 1 µM is 63% and the IC50 was 100 to 1000 nM. Turning to `NC(=O)COc1ccc2c(c1)N(c1nc(-c3ccc(Cl)s3)nc3c1CCC3)CC2` [Compound No. 2-71, 2-((1-(2-(5-Chlorothiophen-2-yl)-6,7-dihydro-5H-cyclopenta[d]pyrimidin-4-yl)indolin-6-yl)oxy)acetamide], the inhibition at 1 µM was found to be 14%. `CN(C)C(=O)COc1ccc2c(c1)N(c1nc(-c3ccc(F)c(F)c3)nc3c1C[S+]([O-])C3)CC2` (stereo not drawn) [Compound No. 2-40, 2-((1-(2-(3,4-Difluorophenyl)-6-oxido-5,7-dihydrothieno[3,4-d]pyrimidin-4-yl)indolin-6-yl)oxy)-N,N-dimethylacetamide]: the inhibition at 1 µM was determined as 119% and the IC50 is less than 100 nM.

With `CN(C)C(=O)COc1ccc2c(c1)N(c1nc(-c3ccc(C(N)=O)s3)nc3c1C[S+]([O-])C3)CC2` (stereo not drawn) [Compound No. 2-80, 5-(4-(6-(2-(Dimethylamino)-2-oxoethoxy)indolin-1-yl)-6-oxido-5,7-dihydrothieno[3,4-d]pyrimidin-2-yl)thiophene-2-carboxamide], the IC50 was less than 100 nM. Besides, under “Percentage inhibition of PDE4B at 0.1 μM test concentration, read-out: Inhibition [%] (inh. at 0.1 μM)”, the inhibition at 0.1 µM was 101%.

As to `COc1ccc(-c2nc3c(c(N4CCc5ccc(OCC(=O)N(C)C)cc54)n2)C[S+]([O-])C3)cc1` (stereo not drawn) [2-18, 2-((1-(2-(4-Methoxyphenyl)-6-oxido-5,7-dihydrothieno[3,4-d]pyrimidin-4-yl)indolin-6-yl)oxy)-N,N-dimethylacetamide], the inhibition at 1 µM was 105% and the IC50 was less than 100 nM. For the molecule `CN(C)C(=O)COc1ccc2c(c1)N(c1nc(-c3cccnc3)nc3c1C[S+]([O-])C3)CC2` (stereo not drawn) [Compound No. 2-137, N,N-Dimethyl-2-((1-(6-oxido-2-(pyridin-3-yl)-5,7-dihydrothieno[3,4-d]pyrimidin-4-yl)indolin-6-yl)oxy)acetamide], the inhibition at 1 µM worked out at 97% and the IC50 was less than 100 nM. For the molecule `Cc1ncc(-c2nc3c(c(N4CCc5ccc(OCC(=O)N(C)C)cc54)n2)C[S+]([O-])C3)s1` (stereo not drawn) [Compound No. 2-140, N,N-Dimethyl-2-((1-(2-(2-methylthiazol-5-yl)-6-oxido-5,7-dihydrothieno[3,4-d]pyrimidin-4-yl)indolin-6-yl)oxy)acetamide], the inhibition at 1 µM worked out at 95% and the IC50 was less than 100 nM. Turning to `CN(C)C(=O)COc1ccc2c(c1)N(c1nc(-c3ccc(F)c(F)c3)nc3c1CS(=O)(=O)C3)CC2` [Compound No. 2-41, 2-((1-(2-(3,4-Difluorophenyl)-6,6-dioxido-5,7-dihydrothieno[3,4-d]pyrimidin-4-yl)indolin-6-yl)oxy)-N,N-dimethylacetamide], the inhibition at 1 µM is 85% and the IC50 is less than 100 nM.

For the molecule `O=C(O)c1ccc2c(c1)CCN2c1nc(-c2ccc(Cl)s2)nc2c1CCC2` [Compound No. 1-72, 1-(2-(5-Chlorothiophen-2-yl)-6,7-dihydro-5H-cyclopenta[d]pyrimidin-4-yl)indoline-5-carboxylic acid], the inhibition at 1 µM was 59% and the IC50 was in the range of 100 to 1000 nM. `COc1ccc(-c2nc3c(c(N4CCc5cc(CC(=O)O)ccc54)n2)CCC3)cc1` [Compound No. 1-3, 2-(1-(2-(4-Methoxyphenyl)-6,7-dihydro-5H-cyclopenta[d]pyrimidin-4-yl)indolin-5-yl)acetic acid]: the inhibition at 1 µM stood at 83% and the IC50 was less than 100 nM. Turning to `CN(C)C(=O)COc1ccc2ncn(-c3nc(-c4ccc(Cl)s4)nc4c3C[S+]([O-])C4)c2c1` (single isomer, unassigned) [Compound No. 2-74, 2-((1-(2-(5-Chlorothiophen-2-yl)-6-oxido-5,7-dihydrothieno[3,4-d]pyrimidin-4-yl)-1H-benzo[d]imidazol-6-yl)oxy)-N,N-dimethylacetamide], the inhibition at 1 µM was 80% and the IC50 is 100 to 1000 nM. `CN(C)C(=O)COc1ccc2c(c1)N(c1nc(-c3cnc4ccccc4c3)nc3c1C[S+]([O-])C3)CC2` (stereo not drawn) [2-146, N,N-Dimethyl-2-[[1-(6-oxo-2-quinolin-3-yl-5,7-dihydro-thieno[3,4-d]pyrimidin-4-yl)-2,3-dihydro-1H-indol-6-yl]oxy]-acetamide]: the inhibition at 1 µM was 104% and the IC50 is less than 100 nM. As for `CN(C)CCOc1ccc2c(c1)N(c1nc(-c3ccc(Cl)s3)nc3c1CS(=O)(=O)C3)CC2` [Compound No. 3-3, 2-(5-Chlorothiophen-2-yl)-4-(6-(2-(dimethylamino)ethoxy)indolin-1-yl)-5,7-dihydrothieno[3,4-d]pyrimidine 6,6-dioxide], the IC50 was 100 to 1000 nM. Take `O=C(COc1ccc2c(c1)N(c1nc(-c3ccc(Cl)s3)nc3c1CCC3)CC2)N1CCOCC1` [Compound No. 2-128, 2-((1-(2-(5-Chlorothiophen-2-yl)-6,7-dihydro-5H-cyclopenta[d]pyrimidin-4-yl)indolin-6-yl)oxy)-1-morpholinoethanone]: the inhibition at 1 µM was found to be 85% and the IC50 was in the range of 100 to 1000 nM. For the molecule `CN(C)C(=O)COc1ccc2c(c1)N(c1nc(-c3ccc4c(c3)OCO4)nc3c1C[S+]([O-])C3)CC2` (stereo not drawn) [2-145, 2-[[1-[2-(1,3-Benzodioxo1-5-yl)-6-oxo-5,7-dihydro-thieno[3,4-d]pyrimidin-4-yl]-2,3-dihydro-1H-indol-6-yl]oxy]-N,N-dimethyl-acetamide], the inhibition at 1 µM was 95% and the IC50 is less than 100 nM. `O=C(COc1ccc2c(c1)N(c1nc(-c3ccncc3)nc3c1C[S+]([O-])C3)CC2)N1CCCC1` (stereo not drawn) [Compound No. 2-133, 2-((1-(6-Oxido-2-(pyridin-4-yl)-5,7-dihydrothieno[3,4-d]pyrimidin-4-yl)indolin-6-yl)oxy)-1-(pyrrolidin-1-yl)ethanone]: the inhibition at 1 µM was found to be 94% and the IC50 was less than 100 nM. For the molecule `CNC(=O)Cc1ccc2c(c1)CCN2c1nc(-c2ccc(Cl)s2)nc2c1CS(=O)(=O)C2` [Compound No. 3-5, 2-(1-(2-(5-Chlorothiophen-2-yl)-6,6-dioxido-5,7-dihydrothieno[3,4-d]pyrimidin-4-yl)indolin-5-yl)-N-methylacetamide], the IC50 was in the range of 100 to 1000 nM.

Take `O=C(COc1ccc2c(c1)N(c1nc(-c3ccc(Cl)s3)nc3c1C[S+]([O-])C3)CC2)N1CCC1` (stereo not drawn) [Compound No. 2-122, 1-(Azetidin-1-yl)-2-((1-(2-(5-chlorothiophen-2-yl)-6-oxido-5,7-dihydrothieno[3,4-d]pyrimidin-4-yl)indolin-6-yl)oxy)ethanone]: the inhibition at 1 µM is 40%.
